Literature values in patent publication US20140294972A1, “Oral Suspension” (NOVA BIO-PHARMA TECHNOLOGIES LIMITED, priority 2011, published 2014).

Details: neutral pH

water solubility: about 6.85 mg/mL
Compound: Sc1ncnc2nc[nH]c12 [6-MP, 3,7-dihydropurine-6-thione]
